Values after ≈ are worked out from the molar mass of the structure shown.
Experiments:
Format in all cases: cell-based
[1] = test system: SGC-7901; assay: Antitumor function detection, CCK-8 inhibition ratio; conditions: SGC-7901 cells, 72 hours
Procedure: (§1) Test Method: The logarithmic phase cells were seeded in 96-well plates with 3,000 cells per well/100 μl of density. After the cells were adhered, 100 μl of the test compounds with different concentrations were added. Design 6-8 concentration gradients. Set five parallel wells in per group and set the control group. After the compound and tumor cells were incubated for 72 hours, 10 μl of CCK-8 solution was added in per well. After the cells were incubated for 1-2 hours in the incubator, the optical density (OD) of per well was counted by Universal Microplate Spectrophotometer to calculate the inhibition ratio: inhibition ratio (IR %)=(1−TOD/COD)×100%, TOD: the mean OD of drug administration group, COD: the mean OD of solvent control. The dose-response curve was plotted in accordance to the drugs with different concentrations and the inhibition ratio of cells to obtain the Inhibitory concentration of drug (IC50). Test Method: The logarithmic phase cells were seeded in 96-well plates with 3,000 cells per well/100 l of density. After the cells were adhered, 100 l of the test compounds with different concentrations were added. Design 6-8 concentration gradients. Set five parallel wells in each group and set the control group. After the compound and tumor cells were incubated for 72 hours, 10 µl of CCK-8 solution was added in each well. After the cells were incubated for 1-2 hours in the incubator, the optical density (OD) of per well was counted by Universal Microplate Spectrophotometer to calculate the inhibition ratio: inhibition ratio (IR %)=(1−TOD/COD)×100%, TOD: the mean OD of drug administration group, COD: the mean OD of solvent control. The dose-response curve was plotted in accordance to the drugs with different concentrations and the inhibition ratio of cells to obtain the Inhibitory concentration of drug (IC50). Test Method: The logarithmic phase cells were seeded in 96-well plates with 3,000 cells per well/100 μl of density. After the cells were adhered, 100 μl of the test compounds with different concentrations were added. Design 6-8 concentration gradients. Set five parallel wells in each group and set the control group. After the compound and tumor cells were incubated for 72 hours, 10 µl of CCK-8 solution was added in each well. After the cells were incubated for 1-2 hours in the incubator, the optical density (OD) of per well was counted by Universal Microplate Spectrophotometer to calculate the inhibition ratio: inhibition ratio (IR %)=(1−TOD/COD)×100%, TOD: the mean OD of drug administration group, COD: the mean OD of solvent control. The dose-response curve was plotted in accordance to the drugs with different concentrations and the inhibition ratio of cells to obtain the Inhibitory concentration of drug (IC50). Test Method: The logarithmic phase cells were seeded in 96-well plates with 3,000 cells per well/100 μl of density. After the cells were adhered, 100 μl of the test compounds with different concentrations were added. Design 6-8 concentration gradients. Set five parallel wells in each group and set the control group. After the compound and tumor cells were incubated for 72 hours, 10 µl of CCK-8 solution was added in each well. After the cells were incubated for 1-2 hours in the incubator, the optical density (OD) of per well was counted by Universal Microplate Spectrophotometer to calculate the inhibition ratio: inhibition ratio (IR %)=(1−TOD/COD)×100%, TOD: the mean OD of drug administration group, COD: the mean OD of solvent control. The dose-response curve was plotted in accordance to the drugs with different concentrations and the inhibition ratio of cells to obtain the Inhibitory concentration of drug (IC50).

[2] = test system: MKN-45; assay: as above; conditions: MKN-45 cells, 72 hours
Procedure: as §1

[3] = test system: gastric cancer cell HGC-27; assay: as above; conditions: HGC-27 cells; for The inhibition ratio (%): 72 hours, CCK-8
Procedure: as §1

[4] = test system: AGS; assay: as above; conditions: AGS cells, 72 hours
Procedure: as §1

[5] = test system: Candida krusei 185429; assay: Anti-fungal function detection, MIC by dilution in RPMI1640; conditions: Pichia kudriavzevii, Standard fungal strain Candida krusei 185429, incubated for 35 and 24 h, read-out: Minimum Inhibitory Concentration, MIC
Procedure: (§2) Test Method: The hexadecyl tromethamine hydrochloride salt solution was semi-diluted to five concentration gradients (100 μg/ml, 50 μg/ml, 25 μg/ml, 12.5 μg/ml and 6.25 μg/ml) by RPMI1640 fluid nutrient medium. 100 μl of every gradient solution was added in the 96-well plate for standby application. Standard fungal strain and clinical drug-resistant fungal strain in table 2 were chosen as the experimental fungus. The activation of the experimental fungus was obtained through that the experimental fungus were cultivated for 48 h at 30° C. The activated experimental fungus was matched to fungal suspension. Count and adjust the concentration using blood counting chamber. The moderate fungal suspension were added into RPMI1640 fluid nutrient medium to 0.5-2.5×10^3 cfμ/ml of final working concentration. 100 μl of above fungal suspension was added into the above 96-well plate with the hexadecyl tromethamine hydrochloride salt solution. Two parallel wells were set for each concentration gradient compound of each strain. Blank medium and blank medium with fungal solution were set as control simultaneously.
as §2, with “tromethamine” for “tromethamine hydrochloride salt”
as §2, with “phosphate” for “hydrochloride salt”, “µg/ml)” for “μg/ml)”
(§3) 2. The Anti-Fungal Function Detection of the Hexadecyl Tromethamine Benzene Sulfonate Test Method: The hexadecyl tromethamine benzene sulfonate solution was semi-diluted to five concentration gradients (100 μg/ml, 50 μg/ml, 25 μg/ml, 12.5 μg/ml and 6.25 µg/ml) by RPMI1640 fluid nutrient medium. 100 μl of every gradient solution was added in the 96-well plate for standby application. Standard fungal strain and clinical drug-resistant fungal strain in table 2 were chosen as the experimental fungus. The activation of the experimental fungus was obtained through that the experimental fungus were cultivated for 48 h at 30° C. The activated experimental fungus was matched to fungal suspension. […]

[6] = test system: Candida tropicalis 191327; assay: as above; conditions: Clinical drug-resistant fungal strain Candida tropicalis 191327, incubated for 35 and 24 h, read-out: Minimum Inhibitory Concentration, MIC
Procedure: as §2
as §2, with “tromethamine” for “tromethamine hydrochloride salt”
as §2, with “phosphate” for “hydrochloride salt”, “µg/ml)” for “μg/ml)”
as §3

[7] = test system: Candida parapsilosis 191344; assay: as above; conditions: for MIC: Lodderomyces parapsilosis, 191344, Clinical drug-resistant fungal strain Candida parapsilosis 191344, incubated for 35 and 24 h, read-out: Minimum Inhibitory Concentration, MIC
Procedure: as §2
as §2, with “tromethamine” for “tromethamine hydrochloride salt”
as §2, with “phosphate” for “hydrochloride salt”, “µg/ml)” for “μg/ml)”
as §3

[8] = test system: Candida lusitaniae 340928; assay: as above; conditions: Clavispora lusitaniae, Standard fungal strain Candida lusitaniae 340928, incubated for 35 and 24 h, read-out: Minimum Inhibitory Concentration, MIC
Procedure: as §2
as §2, with “tromethamine” for “tromethamine hydrochloride salt”
as §2, with “phosphate” for “hydrochloride salt”, “µg/ml)” for “μg/ml)”
as §3

[9] = test system: Candida tropicalis 191529; assay: as above; conditions: Clinical drug-resistant fungal strain Candida tropicalis 191529, incubated for 35 and 24 h, read-out: Minimum Inhibitory Concentration, MIC
Procedure: as §2
as §2, with “tromethamine” for “tromethamine hydrochloride salt”
as §2, with “phosphate” for “hydrochloride salt”, “µg/ml)” for “μg/ml)”
as §3

[10] = test system: Candida glabrata 337348; assay: as above; conditions: for MIC: Nakaseomyces glabratus, 337348, Standard fungal strain Candida glabrata 337348, incubated for 35 and 24 h, read-out: Minimum Inhibitory Concentration, MIC
Procedure: as §2
as §2, with “tromethamine” for “tromethamine hydrochloride salt”
as §2, with “phosphate” for “hydrochloride salt”, “µg/ml)” for “μg/ml)”
as §3

| MIC [5] [µg/mL] | MIC [6] [µg/mL] | MIC [7] [µg/mL] | MIC [8] [µg/mL] | MIC [9] [µg/mL] | MIC [10] [µg/mL] | SMILES | The inhibition ratio (%) ([1]; 2 μM) | The inhibition ratio (%) ([1]; 20 μM) | The inhibition ratio (%) ([2]; 2 μM) | The inhibition ratio (%) ([2]; 20 μM) | The inhibition ratio (%) ([3]; 2 μM) | The inhibition ratio (%) ([3]; 20 μM) | The inhibition ratio (%) ([4]; 2 μM) | The inhibition ratio (%) ([4]; 20 μM) | other results |
| --- | --- | --- | --- | --- | --- | --- | --- | --- | --- | --- | --- | --- | --- | --- | --- |
| 50 | 25 | 25 | 25 | 25 | 25 | CCCCCCCCCCCCCCCCNC(CO)(CO)CO.Cl [2-(hexadecylamino)-2-(hydroxymethyl) propane-1,3-diol hydrochloride] | 21 | 100 | 31 | 99 | 72 | 101 | 42 | 99 | inhibitory effect (level reached on the inhibition curve, FIG. 3) ([3]; rises rapidly when the logarithmic value of compound concentration reached 3 nM): 100% |
| 50 (≈ 145 µM) | 25 (≈ 72.3 µM) | 25 (≈ 72.3 µM) | 25 (≈ 72.3 µM) | 25 (≈ 72.3 µM) | 25 (≈ 72.3 µM) | CCCCCCCCCCCCCCCCNC(CO)(CO)CO [hexadecyl tromethamine] | 24 | 102 | 32 | 98 | 72 | 100 | 43 | 99 | – |
| – | – | – | – | – | – | CCCCCCCCCCCCCCCCNC(CO)(CO)CO [hexadecyl tromethamine phosphate] | – | – | – | – | – | – | – | – | The inhibition ratio (%) ([1]; 2 μM, phosphate): 25%; The inhibition ratio (%) ([1]; 20 μM, phosphate): 101%; The inhibition ratio (%) ([2]; 2 μM, phosphate): 29%; The inhibition ratio (%) ([2]; 20 μM, phosphate): 97%; The inhibition ratio (%) ([3]; 2 μM, phosphate): 68%; The inhibition ratio (%) ([3]; 20 μM, phosphate): 99%; The inhibition ratio (%) ([4]; 2 μM, phosphate): 44%; The inhibition ratio (%) ([4]; 20 μM, phosphate): 100%; Minimum Inhibitory Concentration, MIC ([7]; Clinical drug-resistant fungal strain Candida parapsilosis 191344, incubated for 35 and 24 h, phosphate): 50 µg/mL; Minimum Inhibitory Concentration, MIC ([10]; Standard fungal strain Candida glabrata 337348, incubated for 35 and 24 h, phosphate): 50 µg/mL |
| 100 | 50 | 50 | 25 | 50 | 25 | CCCCCCCCCCCCCCCCNC(CO)(CO)CO.O=S(=O)(O)c1ccccc1 [hexadecyl tromethamine benzene sulfonate] | 23 | 98 | 34 | 100 | 62 | 96 | 38 | 95 | – |
